Results: PubChem BioAssay AID330 (DTP/NCI, 2004)
“And” between values parts separate entries of the source, which are not always exact repeats. Equal values may be shown once. Toxic doses and inconclusive results are not listed. Rule for the calls: active = survival T/C of 150% or more; inactive = T/C below 125% in these data.

Tested on: P388 leukemia ip, CD2F1 mice, survival T/C
Test: NCI In Vivo Anticancer Drug Screen. Data for tumor model P388 Leukemia (intraperitoneal) in CD2F1 (CDF1) mice
Conditions: endpoint: median survival time, higher = longer survival
Procedure, shortened: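 Mice carrying the transplanted tumor received test compound or vehicle. Survival was recorded in each group, and the value is the treated-group measurement divided by that of the vehicle-treated control group.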

[1] = dose: 6.25 mg/kg/injection, schedule: Q01DX009 (ip), vehicle: saline with Tween-80
[2] = dose: 12.5 mg/kg/injection, schedule: Q01DX009 (ip), vehicle: saline with Tween-80
[3] = dose: 25.0 mg/kg/injection, schedule: Q04DX003 (ip), vehicle: saline with Tween-80
[4] = dose: 15.0 mg/kg/injection, schedule: Q01DX005 (ip), vehicle: Klucel (hydroxypropylcellulose) (HPC)
[5] = dose: 30.0 mg/kg/injection, schedule: Q01DX005 (ip), vehicle: Klucel (hydroxypropylcellulose) (HPC)
[6] = dose: 60.0 mg/kg/injection, schedule: Q01DX005 (ip), vehicle: Klucel (hydroxypropylcellulose) (HPC)
[7] = dose: 100.0 mg/kg/injection, schedule: Q04DX003 (ip), vehicle: saline with Tween-80
[8] = dose: 200.0 mg/kg/injection, schedule: Q04DX003 (ip), vehicle: saline with Tween-80
[9] = dose: 400.0 mg/kg/injection, schedule: Q04DX003 (ip), vehicle: saline with Tween-80
[10] = dose: 60.0 mg/kg/injection, schedule: Q01DX005 (ip), vehicle: saline with Tween-80
[11] = dose: 120.0 mg/kg/injection, schedule: Q01DX005 (ip), vehicle: saline with Tween-80
[12] = dose: 240.0 mg/kg/injection, schedule: Q01DX005 (ip), vehicle: saline with Tween-80
[13] = dose: 50.0 mg/kg/injection, schedule: Q01DX009 (ip), vehicle: saline with Tween-80
[14] = dose: 100.0 mg/kg/injection, schedule: Q01DX001 (ip), vehicle: saline
[15] = dose: 200.0 mg/kg/injection, schedule: Q01DX001 (ip), vehicle: saline
[16] = dose: 400.0 mg/kg/injection, schedule: Q01DX001 (ip), vehicle: saline
[17] = dose: 25.0 mg/kg/injection, schedule: Q01DX009 (ip), vehicle: saline with Tween-80
[18] = dose: 100.0 mg/kg/injection, schedule: Q01DX009 (ip), vehicle: saline with Tween-80
[19] = dose: 200.0 mg/kg/injection, schedule: Q01DX009 (ip), vehicle: saline with Tween-80
[20] = dose: 100.0 mg/kg/injection, schedule: Q01DX001 (ip), vehicle: Klucel (hydroxypropylcellulose) (HPC)
[21] = dose: 200.0 mg/kg/injection, schedule: Q01DX001 (ip), vehicle: Klucel (hydroxypropylcellulose) (HPC)
[22] = dose: 400.0 mg/kg/injection, schedule: Q01DX001 (ip), vehicle: Klucel (hydroxypropylcellulose) (HPC)

Measured: T/C

CCC(=O)NCC(=O)O
inactive: dose: 3.13 mg/kg/injection, schedule: Q01DX009 (ip), vehicle: saline with Tween-80 100 % of control | [1] 104 % of control and 86 % of control | dose: 6.25 mg/kg/injection, schedule: Q04DX003 (ip), vehicle: saline with Tween-80 110 % of control | [2] 109 % of control | dose: 12.5 mg/kg/injection, schedule: Q04DX003 (ip), vehicle: saline with Tween-80 100 % of control | [3] 100 % of control

NC(=NCc1ccccc1)N/N=C\c1ccnc2ccccc12
inactive: [4] 101 % of control | [5] 97 % of control | [6] 95 % of control and 97 % of control

NC(=S)N/N=C/c1cc(Cl)ccc1O
inactive: [7] 99 % of control | [8] 98 % of control | [9] 93 % of control

O=C1c2cc(O)c(O)cc2C(=O)c2cc3c(cc21)OCO3
inactive: [10] 97 % of control | [11] 90 % of control | [12] 90 % of control

Clc1ccc(SSN2CCOCC2)cc1
inactive: dose: 3.12 mg/kg/injection, schedule: Q01DX009 (ip), vehicle: saline 100 % of control | dose: 6.25 mg/kg/injection, schedule: Q01DX009 (ip), vehicle: saline 109 % of control | dose: 12.5 mg/kg/injection, schedule: Q01DX009 (ip), vehicle: saline 102 % of control

Cn1ncc2c(N)ncnc21
inactive: [13] 118 % of control | [7] 109 % of control | [8] 123 % of control

CC1=CC2OC3CC(OC(=O)/C=C/C=C/C(O)C(C)O)C(C)(C2(C)CC1)C31CO1 (stereo unspecified)
inactive: dose: 0.16 mg/kg/injection, schedule: Q01DX009 (ip), vehicle: saline + alcohol 109 % of control | dose: 0.31 mg/kg/injection, schedule: Q01DX009 (ip), vehicle: saline + alcohol 113 % of control | dose: 0.62 mg/kg/injection, schedule: Q01DX009 (ip), vehicle: saline + alcohol 109 % of control | dose: 1.25 mg/kg/injection, schedule: Q01DX009 (ip), vehicle: saline + alcohol 109 % of control | dose: 2.5 mg/kg/injection, schedule: Q01DX009 (ip), vehicle: saline + alcohol 120 % of control | dose: 5.0 mg/kg/injection, schedule: Q01DX009 (ip), vehicle: saline + alcohol 123 % of control

CC(C)N[P+](c1ccccc1)(c1ccccc1)c1ccccc1
inactive: dose: 25.0 mg/kg/injection, schedule: Q04DX003 (ip), vehicle: saline 96 % of control

CC1(C)OC2C3COC(O3)C(O)C2O1 (stereo unspecified)
inactive: [14] 107 % of control | [15] 98 % of control | [16] 112 % of control

Cc1c(Cl)cnc(N)c1Cl (tested in a mixture with another compound)
inactive: [17] 93 % of control | [13] 90 % of control | [18] 93 % of control | [19] 95 % of control

COC1C2OC(C)(C)OC2OC1C(C)N(C)O (stereo unspecified)
inactive: [20] 103 % of control | [14] 116 % of control | [21] 106 % of control | [15] 104 % of control | [22] 103 % of control | [16] 99 % of control

CC1(C)CN=C(C2=C(O)c3ccccc3C2=O)C1
inactive: [7] 91 % of control | [8] 93 % of control | [9] 90 % of control

C1CC[N-]CC1.C1CC[N-]CC1.N#C[S-].N#C[S-].[Cu]
inactive: dose: 1.25 mg/kg/injection, schedule: Q04DX003 (ip), vehicle: saline with Tween-80 100 % of control | dose: 2.5 mg/kg/injection, schedule: Q04DX003 (ip), vehicle: saline with Tween-80 100 % of control | dose: 5.0 mg/kg/injection, schedule: Q04DX003 (ip), vehicle: saline with Tween-80 90 % of control | dose: 10.0 mg/kg/injection, schedule: Q04DX003 (ip), vehicle: saline with Tween-80 90 % of control

C/C=C1/C(=O)O[C@]23C=C[C@@H]4C(C(=O)OC)=CO[C@H](O[C@@H]12)[C@@H]43
inactive: dose: 1.25 mg/kg/injection, schedule: Q01DX009 (ip), vehicle: Klucel (hydroxypropylcellulose) (HPC) 96 % of control | dose: 2.5 mg/kg/injection, schedule: Q01DX009 (ip), vehicle: Klucel (hydroxypropylcellulose) (HPC) 98 % of control | dose: 5.0 mg/kg/injection, schedule: Q01DX009 (ip), vehicle: Klucel (hydroxypropylcellulose) (HPC) 102 % of control | dose: 10.0 mg/kg/injection, schedule: Q01DX009 (ip), vehicle: Klucel (hydroxypropylcellulose) (HPC) 109 % of control

O=[N+]([O-])c1ccc(O)c([N+](=O)[O-])c1
inactive: dose: 1.0 mg/kg/injection, schedule: Q01DX005 (ip), vehicle: saline with Tween-80 96 % of control | dose: 2.0 mg/kg/injection, schedule: Q01DX005 (ip), vehicle: saline with Tween-80 108 % of control | dose: 4.0 mg/kg/injection, schedule: Q01DX005 (ip), vehicle: saline with Tween-80 106 % of control | [1] 100 % of control | dose: 8.0 mg/kg/injection, schedule: Q01DX005 (ip), vehicle: saline with Tween-80 104 % of control | [2] 100 % of control | dose: 16.0 mg/kg/injection, schedule: Q01DX005 (ip), vehicle: saline with Tween-80 103 % of control | [17] 90 % of control | [3] 90 % of control | dose: 32.0 mg/kg/injection, schedule: Q01DX005 (ip), vehicle: saline with Tween-80 102 % of control

CCP(C)(=O)c1ccccc1 (stereo unspecified)
inactive: dose: 100.0 mg/kg/injection, schedule: Q04DX002 (ip), vehicle: saline with Tween-80 96 % of control | dose: 200.0 mg/kg/injection, schedule: Q04DX002 (ip), vehicle: saline with Tween-80 97 % of control | dose: 400.0 mg/kg/injection, schedule: Q04DX002 (ip), vehicle: saline with Tween-80 100 % of control

CC(C)(C)NC(=O)NCCCCCCNC(=O)NC(C)(C)C
inactive: [10] 96 % of control | [11] 96 % of control | [12] 101 % of control

CCCCCCC(=O)/C=C/c1ccc(OS(=O)(=O)c2ccccc2)cc1
inactive: [13] 105 % of control | [18] 100 % of control | [19] 101 % of control

CC(/C=C/c1ccccc1)=Nc1ccccc1
inactive: [13] 109 % of control and 112 % of control | [18] 114 % of control and 123 % of control | [19] 123 % of control

CC([NH-])C(=O)O.O=C(O)CN(CC(=O)O)CC(=O)O.[Co+2]
inactive: dose: 25.0 mg/kg/injection, schedule: Q01DX009 (ip), vehicle: saline 104 % of control | dose: 50.0 mg/kg/injection, schedule: Q01DX009 (ip), vehicle: saline 113 % of control | dose: 100.0 mg/kg/injection, schedule: Q01DX009 (ip), vehicle: saline 104 % of control and 90 % of control

O=C1C=C(N2CCOCC2)C(=O)C=C1N1CCOCC1
inactive: dose: 50.0 mg/kg/injection, schedule: Q01DX005 (ip), vehicle: Klucel (hydroxypropylcellulose) (HPC) 90 % of control | dose: 100.0 mg/kg/injection, schedule: Q01DX005 (ip), vehicle: Klucel (hydroxypropylcellulose) (HPC) 98 % of control | dose: 200.0 mg/kg/injection, schedule: Q01DX005 (ip), vehicle: Klucel (hydroxypropylcellulose) (HPC) 92 % of control

NC(=S)N/N=C/c1c(Br)nc2sccn12
inactive: [20] 97 % of control | [21] 89 % of control | [22] 89 % of control

N#CC12C3C4C5C3C1C(C42)n1c(=O)n(-c2ccccc2)c(=O)n15 (stereo unspecified)
inactive: dose: 12.5 mg/kg/injection, schedule: Q01DX009 (ip), vehicle: Klucel (hydroxypropylcellulose) (HPC) 89 % of control and 90 % of control | dose: 25.0 mg/kg/injection, schedule: Q01DX009 (ip), vehicle: Klucel (hydroxypropylcellulose) (HPC) 89 % of control and 92 % of control | dose: 50.0 mg/kg/injection, schedule: Q01DX009 (ip), vehicle: Klucel (hydroxypropylcellulose) (HPC) 90 % of control and 95 % of control | dose: 100.0 mg/kg/injection, schedule: Q01DX009 (ip), vehicle: Klucel (hydroxypropylcellulose) (HPC) 98 % of control | dose: 200.0 mg/kg/injection, schedule: Q01DX009 (ip), vehicle: Klucel (hydroxypropylcellulose) (HPC) 95 % of control

Cn1cc(N=P(c2ccccc2)(c2ccccc2)c2ccccc2)c(=O)n(C)c1=O
inactive: [4] 114 % of control | [5] 105 % of control | [6] 107 % of control
